Our source for the EC50 values is patent US20240360081A1, “SULFONAMIDE OREXIN RECEPTOR AGONISTS AND USES THEREOF” (Jazz Pharmaceuticals Ireland Limited, priority 2021, published 2024).

A value given as a limit tells only on which side of the number the result lay.

For this assay, the target named is T1, human recombinant OX2 (hOX2) receptor expressed in CHO cells (Homo sapiens, UniProt O43614).
T1 construct: host or cells: CHO cells (hOX2-CHO)
T1 sequence (O43614 1-444): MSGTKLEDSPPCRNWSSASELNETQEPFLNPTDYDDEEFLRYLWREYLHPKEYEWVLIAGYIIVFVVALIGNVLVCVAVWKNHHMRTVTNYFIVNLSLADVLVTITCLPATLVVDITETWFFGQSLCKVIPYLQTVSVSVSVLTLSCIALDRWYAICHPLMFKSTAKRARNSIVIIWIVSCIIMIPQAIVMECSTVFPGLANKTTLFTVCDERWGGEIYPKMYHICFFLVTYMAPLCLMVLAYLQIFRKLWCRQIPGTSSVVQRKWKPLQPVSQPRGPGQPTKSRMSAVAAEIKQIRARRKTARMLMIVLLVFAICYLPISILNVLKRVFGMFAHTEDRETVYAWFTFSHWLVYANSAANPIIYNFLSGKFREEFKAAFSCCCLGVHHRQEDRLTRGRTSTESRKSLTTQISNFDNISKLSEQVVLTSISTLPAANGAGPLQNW
Description: IP-1 accumulation assay (IP-One HTRF) in hOX2-CHO cells. The class given is cell-based. The note with it: 60 min at 37° C., 11 points CRC, response as % of maximal OX-A response. Put shortly:
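CHO cells expressing hOX2, 20,000 cells/well in HBSS with 20 mM HEPES pH 7.4, 50 mM LiCl, 0.1% BSA; 11-point compound series, 0.5% DMSO final, 60 min at 37 °C. IP-1 by HTRF (665/615 ratio) after 60 min at room temperature, as % of maximal OX-A response; EC50 by four-parameter logistic fit, mean of ≥2 experiments in duplicate.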
For orientation: Time-resolved FRET reads energy transfer from a long-lived donor to a nearby acceptor.
As a reminder, the EC50 is the midpoint of the concentration-response curve. Regarding `Cc1cc(C)c(=O)n(C(CNS(C)(=O)=O)COC2CCN(c3ncc(F)cn3)CC2)c1` (centres unmarked) [Example 2ay, N-[2-(3,5-dimethyl-2-oxo-1,2-dihydropyridin-1-yl)-3-{[1-(5-fluoropyrimidin-2-yl)piperidin-4-yl]oxy}propyl]methanesulfonamide], the EC50 was over 10 µM.

`CCC[C@H]1CC[C@@H](OCC(CNS(=O)(=O)N(C)C)n2cc(C)cc(C)c2=O)CC1` (stereo partly drawn) [Example 2bb, 1-{1-[(dimethylsulfamoyl)amino]-3-{[(CIS)-4-propylcyclohexyl]oxy}propan-2-yl}-3,5-dimethyl-1,2-dihydropyridin-2-one]: the concentration for a half-maximal effect (EC50) is under 0.1 µM.

For the compound `Cc1cc(C)c(=O)n(C(CNS(=O)(=O)N(C)C)CO[C@H]2CC[C@@H](C3CC3)CC2)c1` (stereo partly drawn) [Example 2bc, 1-{1-[(dimethylsulfamoyl)amino]-3-{[(CIS)-4-cyclopropylcyclohexyl]oxy}propan-2-yl}-3,5-dimethyl-1,2-dihydropyridin-2-one], the EC50 was 0.1 to 1 µM.

For the compound `Cc1cc(C)c(=O)n(C(CNS(C)(=O)=O)COC2CCC3(CCOC3)CC2)c1` (centres unmarked) [Example 2bd, N-[2-(3,5-dimethyl-2-oxo-1,2-dihydropyridin-1-yl)-3-{2-oxaspiro[4.5]decan-8-yloxy}propyl]methanesulfonamide], the 50% effective concentration (EC50) is over 10 µM.

As for `CS(=O)(=O)NCC(CO[C@H]1CC[C@@H](c2ccccc2)CC1)n1cccc(C(F)(F)F)c1=O` (stereo partly drawn) [Example 2c, N-{2-[2-oxo-3-(trifluoromethyl)-1,2-dihydropyridin-1-yl]-3-{[(CIS)-4-phenylcyclohexyl]oxy}propyl}methanesulfonamide], the half-maximal effective concentration (EC50) was 1 to 10 µM.

Consider `Cc1ccn(C(CNS(C)(=O)=O)CO[C@H]2CC[C@@H](c3ccccc3)CC2)c(=O)c1` (stereo partly drawn) [Example 2d, N-[2-(4-methyl-2-oxo-1,2-dihydropyridin-1-yl)-3-{[(CIS)-4-phenylcyclohexyl]oxy}propyl]methanesulfonamide], for which the EC50 lay in the range of 1 to 10 µM.

For `CS(=O)(=O)NCC(CO[C@H]1CC[C@@H](c2ccccc2)CC1)n1cccc(C#N)c1=O` (stereo partly drawn) [Example 2e, N-[2-(3-cyano-2-oxo-1,2-dihydropyridin-1-yl)-3-{[(CIS)-4-phenylcyclohexyl]oxy}propyl]methanesulfonamide], the EC50 lay in the range of 1 to 10 µM.

With `CS(=O)(=O)NCC(CO[C@H]1CC[C@@H](c2ccccc2)CC1)n1cccc(F)c1=O` (stereo partly drawn) [Example 2f, N-[2-(3-fluoro-2-oxo-1,2-dihydropyridin-1-yl)-3-{[(CIS)-4-phenylcyclohexyl]oxy}propyl]methanesulfonamide], the EC50 lay in the range of 1 to 10 µM.

In the case of `Cc1ccc(=O)n(C(CNS(C)(=O)=O)CO[C@H]2CC[C@@H](c3ccccc3)CC2)c1` (stereo partly drawn) [Example 2i, N-[2-(5-methyl-2-oxo-1,2-dihydropyridin-1-yl)-3-{[(CIS)-4-phenylcyclohexyl]oxy}propyl]methanesulfonamide], the EC50 fell in the range of 0.1 to 1 µM.

On to `CS(=O)(=O)NCC(CO[C@H]1CC[C@@H](c2ccccc2)CC1)n1cc(C(F)(F)F)ccc1=O` (stereo partly drawn) [Example 2l, N-{2-[2-oxo-5-(trifluoromethyl)-1,2-dihydropyridin-1-yl]-3-{[(CIS)-4-phenylcyclohexyl]oxy}propyl}methanesulfonamide], for which the EC50 was over 10 µM.

For the compound `Cc1ccn(C(CNS(C)(=O)=O)CO[C@H]2CC[C@@H](c3ccccc3)CC2)c(=O)c1C` (stereo partly drawn) [Example 2m, N-[2-(3,4-dimethyl-2-oxo-1,2-dihydropyridin-1-yl)-3-{[(CIS)-4-phenylcyclohexyl]oxy}propyl]methanesulfonamide], the EC50 was in the range of 0.1 to 1 µM.

`CS(=O)(=O)NCC(CO[C@H]1CC[C@@H](c2ccccc2)CC1)n1cc(Cl)ccc1=O` (stereo partly drawn) [Example 2p, N-[2-(5-chloro-2-oxo-1,2-dihydropyridin-1-yl)-3-{[(CIS)-4-phenylcyclohexyl]oxy}propyl]methanesulfonamide]: the EC50 fell in the range of 1 to 10 µM.

In the case of `CS(=O)(=O)NCC(CO[C@H]1CC[C@@H](c2ccccc2)CC1)n1cc(OC(F)F)ccc1=O` (stereo partly drawn) [Example 2q, N-{2-[5-(difluoromethoxy)-2-oxo-1,2-dihydropyridin-1-yl]-3-{[(CIS)-4-phenylcyclohexyl]oxy}propyl}methanesulfonamide], the EC50 is 1 to 10 µM.

As for `CS(=O)(=O)NCC(CO[C@H]1CC[C@@H](c2ccccc2)CC1)n1cc(C#N)ccc1=O` (stereo partly drawn) [Example 2r, N-[2-(5-cyano-2-oxo-1,2-dihydropyridin-1-yl)-3-{[(CIS)-4-phenylcyclohexyl]oxy}propyl]methanesulfonamide], the EC50 lay within 1 to 10 µM.

Turning to `Cc1cc(C)c(=O)n(C(CNS(C)(=O)=O)CO[C@H]2CC[C@@H](c3ccccc3)CC2)c1` (stereo partly drawn) [Example 2s, N-[2-(3,5-dimethyl-2-oxo-1,2-dihydropyridin-1-yl)-3-{[(CIS)-4-phenylcyclohexyl]oxy}propyl]methanesulfonamide], the EC50 was under 0.1 µM.

For `COc1ccc(=O)n(C(CNS(C)(=O)=O)CO[C@H]2CC[C@@H](c3ccccc3)CC2)c1` (stereo partly drawn) [Example 2v, N-[2-(5-methoxy-2-oxo-1,2-dihydropyridin-1-yl)-3-{[(CIS)-4-phenylcyclohexyl]oxy}propyl]methanesulfonamide], the EC50 fell in the range of 1 to 10 µM.

For the compound `CS(=O)(=O)NCC(CO[C@H]1CC[C@@H](c2ccccc2)CC1)n1ccc(C(F)(F)F)cc1=O` (stereo partly drawn) [Example 2w, N-{2-[2-oxo-4-(trifluoromethyl)-1,2-dihydropyridin-1-yl]-3-{[(CIS)-4-phenylcyclohexyl]oxy}propyl}methanesulfonamide], the EC50 was over 10 µM.

`Cc1cc(Br)cn(C(CNS(C)(=O)=O)CO[C@H]2CC[C@@H](c3ccccc3)CC2)c1=O` (stereo partly drawn) [Example 2x, N-[2-(5-bromo-3-methyl-2-oxo-1,2-dihydropyridin-1-yl)-3-{[(CIS)-4-phenylcyclohexyl]oxy}propyl]methanesulfonamide]: the EC50 is 0.1 to 1 µM.

As to `CS(=O)(=O)NCC(CO[C@H]1CC[C@@H](c2ccccc2)CC1)n1ccc(C#N)cc1=O` (stereo partly drawn) [Example 2y, N-[2-(4-cyano-2-oxo-1,2-dihydropyridin-1-yl)-3-{[(CIS)-4-phenylcyclohexyl]oxy}propyl]methanesulfonamide], the EC50 was over 10 µM.

With `CS(=O)(=O)NCC(CO[C@H]1CC[C@@H](c2ccccc2)CC1)n1ccc2cccnc21` (stereo partly drawn) [Example 2z, N-(2-{1H-pyrrolo[2,3-b]pyridin-1-yl}-3-{[(CIS)-4-phenylcyclohexyl]oxy}propyl)methanesulfonamide], the EC50 lay in the range of 1 to 10 µM.

Consider `Cn1cccc(C(CNS(C)(=O)=O)CO[C@H]2CC[C@@H](c3ccccc3)CC2)c1=O` (stereo partly drawn) [Example 4, N-[2-(1-methyl-2-oxo-1,2-dihydropyridin-3-yl)-3-{[(CIS)-4-phenylcyclohexyl]oxy}propyl]methanesulfonamide], for which the EC50 is 1 to 10 µM.

With `Cc1cc(C(CNS(C)(=O)=O)CO[C@H]2CC[C@@H](c3ccccc3)CC2)c(=O)n(C)c1` (stereo partly drawn) [Example 5a, N-[2-(1,5-dimethyl-2-oxo-1,2-dihydropyridin-3-yl)-3-{[(CIS)-4-phenylcyclohexyl]oxy}propyl]methanesulfonamide], the EC50 lay within 1 to 10 µM.

With `Cc1cc(C(CNS(=O)(=O)N(C)C)CO[C@H]2CC[C@@H](c3cccc(F)c3)CC2)c(=O)n(C(F)F)c1` (stereo partly drawn) [Example 5aa, 1-(difluoromethyl)-3-{1-[(dimethylsulfamoyl)amino]-3-{[(CIS)-4-(3-fluorophenyl)cyclohexyl]oxy}propan-2-yl}-5-methyl-1,2-dihydropyridin-2-one], the EC50 was under 0.1 µM.

For `COc1ccn(C)c(=O)c1C(CNS(C)(=O)=O)CO[C@H]1CC[C@@H](c2ccccc2)CC1` (stereo partly drawn) [Example 5b, N-[2-(4-methoxy-1-methyl-2-oxo-1,2-dihydropyridin-3-yl)-3-{[(CIS)-4-phenylcyclohexyl]oxy}propyl]methanesulfonamide], the EC50 is 1 to 10 µM.

For the compound `Cc1cc(C(CNS(C)(=O)=O)CO[C@H]2CC[C@@H](c3cccc(F)c3)CC2)c(=O)n(CC#N)c1` (stereo partly drawn) [Example 5e, N-{2-[1-(cyanomethyl)-5-methyl-2-oxo-1,2-dihydropyridin-3-yl]-3-{[(CIS)-4-(3-fluorophenyl)cyclohexyl]oxy}propyl}methanesulfonamide], the half-maximal effective concentration (EC50) fell in the range of 0.1 to 1 µM.

On to `CS(=O)(=O)NCC(CO[C@H]1CC[C@@H](c2ccccc2)CC1)c1cccn2cnnc12` (stereo partly drawn) [Example 5f, N-(3-{[(CIS)-4-phenylcyclohexyl]oxy}-2-{[1,2,4]triazolo[4,3-a]pyridin-8-yl}propyl)methanesulfonamide], for which the EC50 was in the range of 0.1 to 1 µM.

As for `Cc1cc(C(CNS(=O)(=O)N(C)C)CO[C@H]2CC[C@@H](c3ccccc3)CC2)n2nccc2c1` (stereo partly drawn) [Example 5g, dimethyl[(2-{5-methylpyrazolo[1,5-a]pyridin-7-yl}-3-{[(CIS)-4-phenylcyclohexyl]oxy}propyl)sulfamoyl]amine], the EC50 is 0.1 to 1 µM.

Regarding `CN(C)S(=O)(=O)NCC(CO[C@H]1CC[C@@H](c2cccc(F)c2)CC1)c1cccc2c1nnn2C` (stereo partly drawn) [Example 5h, dimethyl({[2-(1-methyl-1H-1,2,3-benzotriazol-4-yl)-3-{[(CIS)-4-(3-fluorophenyl)cyclohexyl]oxy}propyl]sulfamoyl})amine], the EC50 was in the range of 1 to 10 µM.

For `Cc1cc(C)nc(C(CNS(C)(=O)=O)CO[C@H]2CC[C@@H](c3ccccc3)CC2)c1` (stereo partly drawn) [Example 5i, N-[2-(4,6-dimethylpyridin-2-yl)-3-{[(CIS)-4-phenylcyclohexyl]oxy}propyl]methanesulfonamide], the EC50 fell in the range of 1 to 10 µM.
